{
  "source": "patent US20140038989A1",
  "about": "“TETRAHYDROPYRAZOLO [1,5-A] PYRIMIDINE AS ANTI-TUBERCULOSIS COMPOUNDS” (Glaxo Group Limited, priority 2011, published 2014)",
  "data": [
    {"tested_on": "Mycobacterium tuberculosis H37Rv", "experiment": "Mycobacterium tuberculosis H37Rv Inhibition Assay (Whole Cell Assay)", "assay_type": "cell-based", "conditions": "ATCC 25618 / H37Rv, H37Rv strain (ATCC25618), Middlebrook 7H9, six days at 37° C., resazurin fluorescence after 48 hours", "units": {"MIC": "µM"}, "values": [
      {"smiles": "Cc1ccc([C@H]2C[C@@H](C(F)(F)F)n3ncc(C(=O)NCc4ccc(F)c(F)c4)c3N2)cc1", "note": "(relative stereo) [Example 31, Cis-N-(3,4-difluorobenzyl)-5-(p-tolyl)-7-(trifluoromethyl)-4,5,6,7-tetrahydropyrazolo[1,5-a]pyrimidine-3-carboxamide]", "MIC": "≤ 1"},
      {"smiles": "CCc1ccc([C@H]2C[C@@H](C(F)F)n3ncc(C(=O)NCc4ccc(OC)cc4)c3N2)cc1", "note": "(relative stereo) [Example 32, Cis-7-(difluoromethyl)-5-(4-ethylphenyl)-N-(4-methoxybenzyl)-4,5,6,7-tetrahydropyrazolo[1,5-a]pyrimidine-3-carboxamide]", "MIC": "≤ 1"},
      {"smiles": "CCc1ccc([C@H]2C[C@@H](C(F)F)n3ncc(C(=O)NCc4ccc(C)cc4)c3N2)cc1", "note": "(relative stereo) [Example 33, Cis-7-(difluoromethyl)-5-(4-ethylphenyl)-N-(4-methylbenzyl)-4,5,6,7-tetrahydropyrazolo[1,5-a]pyrimidine-3-carboxamide]", "MIC": "≤ 1"},
      {"smiles": "CCc1ccc([C@H]2C[C@@H](C(F)F)n3ncc(C(=O)NCc4ccc5c(c4)OCO5)c3N2)cc1", "note": "(relative stereo) [Example 34, Cis-N-(benzo[d][1,3]dioxol-5-ylmethyl)-7-(difluoromethyl)-5-(4-ethylphenyl)-4,5,6,7-tetrahydropyrazolo[1,5-a]pyrimidine-3-carboxamide]", "MIC": "≤ 1"},
      {"smiles": "CCc1ccc([C@H]2C[C@@H](C(C)(C)C)n3ncc(C(=O)NCc4ccc(OC)cc4)c3N2)cc1", "note": "(relative stereo) [Example 35, Cis-7-(tert-butyl)-5-(4-ethylphenyl)-N-(4-methoxybenzyl)-4,5,6,7-tetrahydropyrazolo[1,5-a]pyrimidine-3-carboxamide]", "MIC": "≤ 1"},
      {"smiles": "CCc1ccc([C@H]2C[C@@H](C(C)(C)C)n3ncc(C(=O)NCc4ccc5c(c4)OCO5)c3N2)cc1", "note": "(relative stereo) [Example 36, Cis-N-(benzo[d][1,3]-dioxol-5-ylmethyl)-7-(tert-butyl)-5-(4-ethylphenyl)-4,5,6,7-tetrahydropyrazolo[1,5-a]pyrimidine-3-carboxamide]", "MIC": "1 to 2"},
      {"smiles": "COc1ccc(CNC(=O)c2cnn3c2N[C@@H](c2ccc(Br)cc2)C[C@H]3C(F)(F)F)cc1", "note": "(relative stereo) [Example 42, Cis-5-(4-bromophenyl)-N-(4-methoxybenzyl)-7-(trifluoromethyl)-4,5,6,7-tetrahydropyrazolo[1,5-a]pyrimidine-3-carboxamide]", "MIC": "> 2"},
      {"smiles": "Cc1ccc([C@H]2C[C@@H](C(F)(F)F)n3ncc(C(=O)NCc4ccccc4C(F)(F)F)c3N2)cc1", "note": "(relative stereo) [Example 43, Cis-5-(p-tolyl)-7-(trifluoromethyl)-N-(2-(trifluoromethyl)benzyl)-4,5,6,7-tetrahydropyrazolo[1,5-a]pyrimidine-3-carboxamide]", "MIC": "> 2"},
      {"smiles": "CCc1ccc([C@H]2C[C@@H](C(F)(F)F)n3ncc(C(=O)NCc4ccccc4C(F)(F)F)c3N2)cc1", "note": "(relative stereo) [Example 44, Cis-5-(4-ethylphenyl)-7-(trifluoromethyl)-N-(2-(trifluoromethyl)benzyl)-4,5,6,7-tetrahydropyrazolo[1,5-a]pyrimidine-3-carboxamide]", "MIC": "> 2"},
      {"smiles": "CCc1ccc([C@H]2C[C@@H](C(F)(F)F)n3ncc(C(=O)NCc4ccccc4OC)c3N2)cc1", "note": "(relative stereo) [Example 45, Cis-5-(4-ethylphenyl)-N-(2-methoxybenzyl)-7-(trifluoromethyl)-4,5,6,7-tetrahydropyrazolo[1,5-a]pyrimidine-3-carboxamide]", "MIC": "> 2"},
      {"smiles": "CCc1ccc([C@H]2C[C@@H](C(F)(F)F)n3ncc(C(=O)NCc4ccc(OC)cc4OC)c3N2)cc1", "note": "(relative stereo) [Example 46, Cis-N-(2,4-dimethoxybenzyl)-5-(4-ethylphenyl)-7-(trifluoromethyl)-4,5,6,7-tetrahydropyrazolo[1,5-a]pyrimidine-3-carboxamide]", "MIC": "> 2"},
      {"smiles": "CCc1ccc([C@H]2C[C@@H](C(F)(F)F)n3ncc(C(=O)NCc4ccc(OC)c(OC)c4)c3N2)cc1", "note": "(relative stereo) [Example 47, Cis-N-(3,4-dimethoxybenzyl)-5-(4-ethylphenyl)-7-(trifluoromethyl)-4,5,6,7-tetrahydropyrazolo[1,5-a]pyrimidine-3-carboxamide]", "MIC": "> 2"},
      {"smiles": "CCc1ccc([C@H]2C[C@@H](C(F)(F)F)n3ncc(C(=O)NCc4ccncc4)c3N2)cc1", "note": "(relative stereo) [Example 48, Cis-5-(4-ethylphenyl)-N-(pyridin-4-ylmethyl)-7-(trifluoromethyl)-4,5,6,7-tetrahydropyrazolo[1,5-a]pyrimidine-3-carboxamide]", "MIC": "> 2"},
      {"smiles": "Cc1ccc([C@H]2C[C@@H](C(F)(F)F)n3ncc(C(=O)NCc4ccc(N(C)C)cc4)c3N2)cc1", "note": "(relative stereo) [Example 49, Cis-N-(4-(dimethylamino)benzyl)-5-(p-tolyl)-7-(trifluoromethyl)-4,5,6,7-tetrahydropyrazolo[1,5-a]pyrimidine-3-carboxamide]", "MIC": "> 2"},
      {"smiles": "Cc1ccc([C@H]2C[C@@H](C(F)(F)F)n3ncc(C(=O)NCc4ccc5c(c4)OCCO5)c3N2)cc1", "note": "(relative stereo) [Example 50, Cis-N-((2,3-dihydrobenzo[b][1,4]dioxin-6-yl)methyl)-5-(p-tolyl)-7-(trifluoromethyl)-4,5,6,7-tetrahydropyrazolo[1,5-a]pyrimidine-3-carboxamide]", "MIC": "> 2"},
      {"smiles": "CCc1ccc([C@H]2C[C@@H](C(F)(F)F)n3ncc(C(=O)NCc4ccc(F)cc4)c3N2)cc1", "note": "(relative stereo) [Example 58, Cis-5-(4-ethylphenyl)-N-(4-fluorobenzyl)-7-(trifluoromethyl)-4,5,6,7-tetrahydropyrazolo[1,5-a]pyrimidine-3-carboxamide]", "MIC": "≤ 1"},
      {"smiles": "CCc1ccc([C@H]2C[C@@H](C(F)(F)F)n3ncc(C(=O)NCc4ccc(F)cc4F)c3N2)cc1", "note": "(relative stereo) [Example 59, Cis-N-[(2,4-difluorophenyl)methyl]-5-(4-ethylphenyl)-7-(trifluoromethyl)-4,5,6,7-tetrahydropyrazolo[1,5-a]pyrimidine-3-carboxamide]", "MIC": "≤ 1"},
      {"smiles": "CCc1ccc([C@H]2C[C@@H](C(F)(F)F)n3ncc(C(=O)NCc4cccc(F)c4)c3N2)cc1", "note": "(relative stereo) [Example 60, Cis-5-(4-ethylphenyl)-N-(3-fluorobenzyl)-7-(trifluoromethyl)-4,5,6,7-tetrahydropyrazolo[1,5-a]pyrimidine-3-carboxamide]", "MIC": "≤ 1"},
      {"smiles": "CCc1ccc([C@H]2C[C@@H](C(F)(F)F)n3ncc(C(=O)NCc4ccccc4F)c3N2)cc1", "note": "(relative stereo) [Example 62, Cis-5-(4-ethylphenyl)-N-(2-fluorobenzyl)-7-(trifluoromethyl)-4,5,6,7-tetrahydropyrazolo[1,5-a]pyrimidine-3-carboxamide]", "MIC": "≤ 1"},
      {"smiles": "CCc1ccc([C@H]2C[C@@H](C(F)(F)F)n3ncc(C(=O)NCc4ccc(F)c(C)c4)c3N2)cc1", "note": "(relative stereo) [Example 63, Cis-5-(4-ethylphenyl)-N-(4-fluoro-3-methylbenzyl)-7-(trifluoromethyl)-4,5,6,7-tetrahydropyrazolo[1,5-a]pyrimidine-3-carboxamide]", "MIC": "≤ 1"}
    ]}
  ]
}
